# Test results taken from ChEMBL document CHEMBL2434929, “Thermoresponsive dendrimers based on oligoethylene glycols: design, synthesis and cytotoxic activity against MCF-7 breast cancer cells” (Eur J Med Chem, 2013).
# Legend:
# [1] = tested on: MCF7; assay: Cytotoxicity against human MCF7 cells after 72 hrs by SRB-U assay; format: functional, cell-based; conditions: MCF7, 72 h
# [2] = tested on: MCF7; assay: Cytotoxicity against human MCF7 cells assessed as viable cells at 0.1 to 1000 ug/ml after 72 hrs by SRB-U assay; format: functional
SMILES,IC50 [1],Activity [2]
CCOCCOCCOCCOc1cc(COCCOCCOCCOc2c(Br)c(Br)c(OCCOCCOCCOCc3cc(OCCOCCOCCOCC)c(OCCOCCOCCOCC)c(OCCOCCOCCOCC)c3)c(Br)c2Br)cc(OCCOCCOCCOCC)c1OCCOCCOCCOCC,25.4 µg/mL,5.1%
CCOCCOCCOCCOc1cc(COc2c(Br)c(Br)c(OCc3cc(OCCOCCOCCOCC)c(OCCOCCOCCOCC)c(OCCOCCOCCOCC)c3)c(Br)c2Br)cc(OCCOCCOCCOCC)c1OCCOCCOCCOCC,1.07 µg/mL,1.97%
CCOCCOCCOCCOc1c(Br)c(Br)c(OCCOCCOCCOCC)c(Br)c1Br,13.8 µg/mL,11.22%
